Structures are written as SMILES.

In assay [1] the test system is tyrosine amino-transferase (TAT) in RHC (Rat Hepatoma Cells). The experiment in a line: Antiglucocorticoid activity: tyrosine amino-transferase (TAT) induction in RHC cultures. Type of assay: cell-based. The following applies: for EC (max): Rattus norvegicus, read-out: concentration of max. TAT activity (induction); for antiglucocorticoid activity as % of the activity of the standard compound RU 486 (C): TAT test in RHC, simultaneous treatment with corticoid. As to the method:
To identify the antiglucocorticoid activity, the effect of the substances in accordance with the invention on the tyrosine amino-transferase was determined. The test system is based on measurement of the activity of the liver enzyme tyrosine amino-transferase (TAT) in cultures of RHC (Rat Hepatoma Cells). The enzyme catalyzes the first step in the metabolism of tyrosine and can be induced by glucocorticoids both in the liver and in hepatoma cells. The activity is easy to measure in raw extracts (Granner and Tomkins, (1970) Meth. Enzymol. 15, 633). The enzyme converts the amino group of tyrosine to 2-oxoglutaric acid. Glutaminic acid and p-hydroxy-phenylpyruvate are formed. […] Its measured absorption lies at 331 nm. […] The activity can be stimulated by a factor of 4 to 6 above basal value. Simultaneous treatment with corticoid and antiglucocorticoid leads to a decrease in the TAT activity.

In another assay the test system is pregnant rats. The experiment in a line: Abortive test with pregnant rats (antigestagenic effect). Type of assay: in vivo, rat. The following applies: for Abortion Rate n aborting/n treated rats: d5-d7 p.c., autopsy d9 p.c.; for abortive effect in words: dose of 0.3 mg, pregnant rats s.c.; for factor by which more effective than RU 486 (C) in the abortive test: pregnant rats, s.c. As to the method:
The abortifacient activity was determined to define the antigestagenic effect. The tests were carried out on female rats with a weight of approx. 200 g. […] The date on which sperm are detected was considered the 1st day of pregnancy (=dl p.c.). The animals were treated with the substance to be tested or the solvent after nidation of the blastocysts from d5 p.c. to d7 p.c. The animals were killed on d9 p.c. and the uteri were checked for implants and points of resorption. Photos were made of all uteri. Lack of implants was considered as abortions. The test substances were dissolved in a mixture of benzylbenzoate and castor oil (ratio of 1:4). The vehicle volume per individual dose amounted to 0.2 ml. Treatment was subcutaneous (s.c.).

A further assay concerns guinea pigs. The experiment in a line: Abortive effect in guinea pigs. Type of assay: in vivo, guinea pig. As to the method:
The abortive effect of the substances in accordance with the invention (A) and (B) was also determined using guinea pigs as test animals.
The test results gained from guinea pigs permit more reliable predictions to be made on the abortive activity of the tested compound(s) to be expected in the case of humans than is permitted by the data gained with rats.

For the next assay, the target named is T1, gestagen receptor (Oryctolagus cuniculus, UniProt P06186).
T1 sequence (P06186 1-930): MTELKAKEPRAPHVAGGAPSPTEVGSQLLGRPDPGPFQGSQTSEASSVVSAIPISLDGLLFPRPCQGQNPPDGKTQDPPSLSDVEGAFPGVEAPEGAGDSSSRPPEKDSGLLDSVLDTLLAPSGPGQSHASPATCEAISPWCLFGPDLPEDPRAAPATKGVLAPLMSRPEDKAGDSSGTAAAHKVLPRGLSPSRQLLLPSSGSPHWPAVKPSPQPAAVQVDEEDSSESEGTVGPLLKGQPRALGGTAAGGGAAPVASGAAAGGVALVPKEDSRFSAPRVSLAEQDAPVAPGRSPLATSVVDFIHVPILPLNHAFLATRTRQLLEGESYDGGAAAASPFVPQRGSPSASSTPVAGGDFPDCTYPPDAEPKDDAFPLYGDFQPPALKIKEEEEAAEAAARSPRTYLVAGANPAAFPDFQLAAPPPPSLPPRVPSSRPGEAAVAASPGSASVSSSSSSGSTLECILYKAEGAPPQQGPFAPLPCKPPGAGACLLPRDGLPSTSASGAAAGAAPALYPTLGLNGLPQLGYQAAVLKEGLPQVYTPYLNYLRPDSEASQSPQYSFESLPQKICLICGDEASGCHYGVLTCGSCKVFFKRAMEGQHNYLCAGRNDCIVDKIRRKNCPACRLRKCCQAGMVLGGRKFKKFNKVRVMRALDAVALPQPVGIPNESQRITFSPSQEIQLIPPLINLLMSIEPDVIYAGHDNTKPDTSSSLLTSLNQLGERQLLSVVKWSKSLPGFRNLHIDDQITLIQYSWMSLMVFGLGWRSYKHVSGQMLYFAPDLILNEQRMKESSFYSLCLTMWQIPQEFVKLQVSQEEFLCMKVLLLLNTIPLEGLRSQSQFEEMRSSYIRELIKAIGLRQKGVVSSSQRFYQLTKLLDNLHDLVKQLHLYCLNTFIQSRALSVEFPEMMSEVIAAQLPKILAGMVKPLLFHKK
The experiment in a line: Gestagen receptor binding test (3H-progesterone displacement, rabbit uterus cytosol). As for the experimental part:
The affinity of the compounds in accordance with the invention to the gestagen receptor is examined with the gestagen receptor binding test. In this test the displacement of the agonist by the antagonist is measured. Cytosol from rabbit uterus homogenate which contains the receptor molecule (a protein) is used in the test. This binds progesterone with high affinity and low capacity. When these receptors are charged with ^3 H-progesterone in the presence of the unlabeled substance to be tested, the extent to which the ^3 H-progesterone is displaced from the receptor depends on the concentration and binding affinity of the compound to be tested. After separation of the receptor-bound progesterone from the non-bound progesterone, the binding can be determined as a percentage and this value plotted against the log of the molar concentration of the test substance. Characteristic dosage-dependent displacement curves are obtained and the concentration of the test substance can be determined which is required to oust the reference substance […] from the receptor.

For the molecule `C[C@@H]1C[C@H]2[C@@H]3CCC4=CC(=O)C=C[C@]4(C)[C@@]3(F)[C@@H](O)C[C@]2(C)[C@@]1(O)C(=O)CO` [dexamethasone, reference compound], in assay [1], the EC (max) was 0.1 µM.

As to `C[C@]12CCC(=O)C=C1CC[C@@H]1[C@@H]2[C@@H](O)C[C@@]2(C)[C@H]1CC[C@]2(O)C(=O)CO` [cortisol, reference compound], in assay [1], the EC (max) stood at 1 µM.

With `CC#C[C@]1(O)CC[C@H]2[C@@H]3CCC4=CC(=O)CCC4=C3[C@@H](c3ccc(N(C)C)cc3)C[C@@]21C` [C, 11β-(4-dimethylaminophenyl)-17β-hydroxy-17α-(prop-1-inyl)-4,9,(10)-estradien-3-one, reference compound], the “Abortion Rate n aborting/n treated rats” value is given as 0/4 with pregnant rats (0.3 mg/animal/day s.c.), 2/4 in the assay with pregnant rats (1.0 mg/animal/day s.c.) and 4/4 with pregnant rats (3.0 mg/animal/day s.c.).

As to `C#CC[C@]1(O)C=C[C@H]2[C@@H]3CCC4=CC(=O)CCC4=C3[C@@H](c3ccc(C(C)=O)cc3)C[C@@]21C` [B, 11β-(4-acetylphenyl)-17β-hydroxy-17α-(prop-2-inyl)-4,9,15-estratrien-3-one], the “antiglucocorticoid activity as % of the activity of the standard compound RU 486 (C)” value in assay [1] was “less than 1%”. In the assay with guinea pigs, the “abortifacient effect compared with compound (D)” value is reported as “strikingly higher abortifacient effect”. Besides, the “strength in the gestagen receptor binding test compared with standard compound (C)” value on gestagen receptor is “about the same strength”. In addition, the “Abortion Rate n aborting/n treated rats” value in the assay with pregnant rats (0.3 mg/animal/day s.c.), in the assay with pregnant rats (1.0 mg/animal/day s.c.) and in the assay with pregnant rats (3.0 mg/animal/day s.c.) was 4/4 each time. Further, the “abortive effect in words” value in the assay on pregnant rats is on record as “fully abortive”. In addition, the “factor by which more effective than RU 486 (C) in the abortive test” value in the assay with pregnant rats was determined as 10.

For the molecule `CC#C[C@]1(O)CC[C@H]2[C@@H]3CCC4=CC(=O)CCC4=C3[C@@H](c3ccc(C(C)=O)cc3)C[C@@]21C` [D, 11β-(4-acetylphenyl)-17β-hydroxy-17α-(prop-1-inyl)-4,9-estradien-3-one, reference compound], the “Abortion Rate n aborting/n treated rats” value in the assay on pregnant rats (0.3 mg/animal/day s.c.), with pregnant rats (1.0 mg/animal/day s.c.) and in the assay on pregnant rats (3.0 mg/animal/day s.c.) was 4/4 in each case.

`CC#C[C@]1(O)C=C[C@H]2[C@@H]3CCC4=CC(=O)CCC4=C3[C@@H](c3ccc(C(C)=O)cc3)C[C@@]21C` [A, 11β-(4-acetylphenyl)-17β-hydroxy-17α-(prop-1-inyl)-4,9,15-estratrien-3-one]: the “antiglucocorticoid activity as % of the activity of the standard compound RU 486 (C)” value in assay [1] is 20-50%. For the same molecule, the “abortifacient effect compared with compound (D)” value with guinea pigs is “strikingly higher abortifacient effect”. For the same molecule, the “strength in the gestagen receptor binding test compared with standard compound (C)” value at gestagen receptor is “much stronger”. Moreover, the “Abortion Rate n aborting/n treated rats” value in the assay on pregnant rats (0.3 mg/animal/day s.c.), in the assay on pregnant rats (1.0 mg/animal/day s.c.) and with pregnant rats (3.0 mg/animal/day s.c.) was 4/4 in each case. For the same molecule, in the assay with pregnant rats, the “abortive effect in words” value is on record as “fully abortive”. In the assay with pregnant rats, the “factor by which more effective than RU 486 (C) in the abortive test” value is given as 10.

For the origin of these results see patent US5132299A, “11β-phenyl-4,9,15-estratrienes, their manufacture and pharmaceutical preparations containing same” (Schering Aktiengesellschaft, priority 1987, dated 1992).
